Here are results for one compound from patent publication US20150368242A1, “NOVEL TETRAHYDROPYRIDOPYRIMIDINONE DERIVATIVE” (Ajinomoto Co., Inc., priority 2013, published 2015).

Structures can show the parent of a compound that is named as a salt.

In test [1] the test system is C57BL/6J mice fed on high-fat diet (diet-induced obesity mouse model). The test can be described thus: Test for anti-obesity action in high-fat diet fed mice. In kind it is in vivo. As to conditions: for Body Fat Weight, average value (difference from medium administration group) / Fat-Free Weight, average value (difference from medium administration group): Day 21, quantitative NMR; for Percent Body Weight Change, average value (difference from medium administration group): forced oral once per day Day 1 to Day 22, Day 23, n=8. From the text: The anti-obesity action of the compound of Example 5 was examined in C57BL/6J mice fed on high-fat diet (Research Diets D12492). Thirteen-week old male C57BL/6J-DIO mice (CHARLES RIVER LABORATORIES JAPAN, INC.) were purchased, and fed in animal facilities under a 12-hour light/dark cycle for 13 weeks on the diet of D12492. From six days before the administration of the compound, the animals were habituated by inserting a tube for forced oral administration into the stomach once per day. One day before the administration of the compound, the mice were randomized on the basis of the body weight, and divided into groups (n=8). From Day 1 to Day 22, forced oral administration of the compound or a medium (0.5% methyl cellulose) was conducted once per day. The body weight was measured every day, and the body fat weight and the fat-free weight were measured by using a quantitative NMR apparatus (EcoMRI, Hitachi Aloka Medical, Ltd.) on Day 21.
The percent body weight change (Day 23, Table 6), the body fat weight (Day 21, Table 7), and the fat-free weight (Day 21, Table 8) were each expressed in terms of the difference between the average value of the compound administration group and the average value of the medium administration group, and the difference between the groups was subjected to Dunnett's multiple comparison test (significance level p=0.05). Note that, in Tables 6 to 8, “n.s.” means a non-significant difference.

Test [2] relates to orally lipid-loaded mouse model (C57BL/6J mice). As to the kind of experiment: Test for lipid absorption inhibitory action (orally lipid-loaded mouse model). The format is in vivo. The conditions noted are these: for Lipid absorption inhibition ratio (%): 30 mg/kg oral, plasma neutral fat AUC up to 6 hours after corn oil. As to the method:
The lipid absorption inhibitory action of the compounds of Examples 5 and 60 and the compound of Comparative Example 1 was examined in an orally lipid-loaded mouse model. In this test, 10 to 11-week old male C57BL/6J mice (CLEA Japan, Inc.) were used. After the mice were fasted for 17 hours from the preceding day, blood was collected from the fundus, and further the mice were subjected to forced oral administration of one of the compounds or the medium (0.5% methyl cellulose). Thirty minutes after the administration, tyloxapol (500 mg/kg) was administered into the tail vein, and corn oil (200 μl) was orally administered (n=5-6). Blood was collected via the tail vein 2, 4, and 6 hours after the administration of corn oil, and plasma was obtained by centrifuging the blood. The neutral fat concentration in the plasma was measured by using Triglyceride E-Test Wako (Wako Pure Chemical Industries, Ltd.). The neutral fat concentration in the plasma before the administration of the compound was taken as the value at 0 hours, and the area under the curve (AUC) of the neutral fat concentration in the plasma up to 6 hours after the administration of corn oil was calculated. From the average value of the AUC of each administration group, the lipid absorption inhibition ratio was obtained by using the following formula.
Lipid absorption inhibition ratio (%)=(Average value of AUC of medium administration group-Average value of AUC of compound administration group)/Average value of AUC of medium administration group×100

The target of test [3] is T1, recombinant human MGAT2 enzyme (Homo sapiens, UniProt Q3SYC2).
T1 construct: made in house; host or cells: CHO-K1 (Jump-In CHO-K1 Kit, Life Technologies); microsomal fraction used as the enzyme solution
T1 sequence (Q3SYC2 whole entry): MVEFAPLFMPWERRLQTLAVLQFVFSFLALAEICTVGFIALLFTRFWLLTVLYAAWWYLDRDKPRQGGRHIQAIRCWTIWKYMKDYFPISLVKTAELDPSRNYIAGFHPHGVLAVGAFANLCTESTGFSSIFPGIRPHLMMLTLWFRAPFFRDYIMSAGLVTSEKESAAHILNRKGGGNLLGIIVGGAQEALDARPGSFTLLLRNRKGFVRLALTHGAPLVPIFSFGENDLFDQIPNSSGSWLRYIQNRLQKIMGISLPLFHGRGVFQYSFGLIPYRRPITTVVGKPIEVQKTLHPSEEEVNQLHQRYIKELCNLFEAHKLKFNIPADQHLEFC
As to the kind of experiment: Test for human MGAT2 activity inhibitory action (14C-oleoyl CoA, recombinant enzyme microsomes). In kind it is biochemical. The conditions noted are these: First Test (Table 3). In a few lines: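 Microsomes from CHO-K1 cells expressing human MGAT2 (0.67 μg/mL) reacted 30 min at 37 °C with 50 μM 2-monooleoyl glycerol, 50 μM oleoyl CoA, 2.2 μM 1-14C-oleoyl CoA and 8.3 μM orlistat in 50 mM Tris pH 7.4, 6 mM MgCl2, 2 mg/mL BSA, 0.3% DMSO. Heptane-extracted 14C counted; inhibition normalized between no-compound and 10 μM reference-compound controls.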

Where [4] appears, read: 30 mg/kg, Dunnett's test versus medium group.

In the case of `O=C(CNCCCCCOc1ccc(C(F)(F)F)cc1)N1CCc2nc(SC3CCC3)n(-c3ccccc3)c(=O)c2C1` [Example 5, 2-cyclobutylsulfanyl-3-phenyl-6-[2-[5-[4-(trifluoromethyl)phenoxy]pentylamino]acetyl]-7,8-dihydro-5H-pyrido[4,3-d]pyrimidin-4-one trifluoroacetate], the “Body Fat Weight, average value (difference from medium administration group)” value was -2.22 g in test [1] (10 mg/kg oral once per day) and -4.26 g in test [1] (30 mg/kg oral once per day). Besides, the “Fat-Free Weight, average value (difference from medium administration group)” value in test [1] (10 mg/kg oral once per day) was -0.34 g; in test [1] (30 mg/kg oral once per day), -0.98 g. In addition, the “Percent Body Weight Change, average value (difference from medium administration group)” value in test [1] (10 mg/kg) is on record as −4.15%; in test [1] (30 mg/kg), −9.56%. The “body fat weight (in words)” value in test [1] (setting [4]) is recorded as “significantly lowered”. Also, in test [1] (setting [4]), the “percent body weight change (in words)” value is listed as “significantly lowered”. The “decrease of the fat-free body weight (in words)” value in test [1] (10 and 30 mg/kg, Dunnett's test versus medium group) was “did not have a statistically significant difference”. Further, the “lipid absorption inhibitory action (in words)” value in test [2] (30 mg/kg, Comparative Example 1 at 100 mg/kg) is listed as “not inferior to that of the compound of Comparative Example 1”. The “Lipid absorption inhibition ratio (%)” value in test [2] (Test 2) is reported as 45%; in test [2] (Test 3), 42%. The “vs Comp. Ex. 1” value in test [3] (relative to Comparative Example 1, greater value = higher inhibitory action) stood at 349. In addition, the IC50 in test [3] (IC50 (nM)) turned out to be 0.64 nM.

In general, IC50 refers to the concentration needed to halve the response being measured.
